Where a name gives a salt, the structure may show the parent alone.

The target of experiment [1] is T1, recombinant N-terminal MLH1 (residues 15-340) (Homo sapiens, UniProt P40692).
T1 construct: recombinant N-terminal MLH1 (residues 15-340)
T1 sequence (P40692 15-340): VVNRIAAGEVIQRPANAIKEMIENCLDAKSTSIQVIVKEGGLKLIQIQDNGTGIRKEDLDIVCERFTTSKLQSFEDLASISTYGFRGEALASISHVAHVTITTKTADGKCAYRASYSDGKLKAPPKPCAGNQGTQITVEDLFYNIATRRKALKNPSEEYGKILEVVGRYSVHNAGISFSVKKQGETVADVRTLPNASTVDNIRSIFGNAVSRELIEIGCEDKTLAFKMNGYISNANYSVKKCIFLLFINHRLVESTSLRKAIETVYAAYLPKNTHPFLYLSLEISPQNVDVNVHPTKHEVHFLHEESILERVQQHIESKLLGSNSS
In words: Fluorescence Polarisation Assay for MLH1. The conditions noted are these: fluorescence polarisation probe displacement; 100 nM N-terminal MLH1, 5 nM probe compound. Format: binding. The procedure, abridged:
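FP displacement assay: 100 nM MLH1 (residues 15-340) preincubated 30 min at room temperature with compound in 25 mM HEPES pH 7.5, 250 mM NaCl, 10 mM MgCl2, 0.01% Triton X-100, 5 mM DTT, then 5 nM rhodamine-labelled probe added and read immediately. Data normalised to no-inhibitor and no-enzyme controls.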
In general terms: Polarisation of emitted light reports the rotation of a fluorescent probe.

Experiment [2] concerns the target T2, recombinant N-terminal PMS2 (residues 1-365) (Homo sapiens, UniProt P54278).
T2 construct: recombinant N-terminal PMS2 (residues 1-365)
T2 sequence (P54278 1-365): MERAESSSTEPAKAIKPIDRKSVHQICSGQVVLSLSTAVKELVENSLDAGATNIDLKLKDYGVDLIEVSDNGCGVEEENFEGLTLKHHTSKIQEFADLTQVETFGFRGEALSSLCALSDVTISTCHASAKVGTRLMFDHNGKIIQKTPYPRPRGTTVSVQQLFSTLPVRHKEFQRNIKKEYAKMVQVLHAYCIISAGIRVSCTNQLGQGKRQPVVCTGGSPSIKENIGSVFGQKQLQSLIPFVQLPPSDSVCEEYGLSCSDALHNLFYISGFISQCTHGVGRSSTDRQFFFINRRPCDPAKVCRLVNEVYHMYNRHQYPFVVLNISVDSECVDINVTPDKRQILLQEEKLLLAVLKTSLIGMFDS
In words: Fluorescence Polarisation Assay for PMS2. The conditions noted are these: fluorescence polarisation probe displacement; 10 nM N-terminal PMS2, 5 nM probe compound; read-out: PMS2 IC50. Format: binding. The procedure, abridged:
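Competition fluorescence polarisation with 10 nM N-terminal PMS2 and 5 nM fluorescent probe (final), read after 1 h at room temperature following 30 min compound pre-incubation. Data normalised to no-inhibitor and no-enzyme controls; single-point screening or serial dilutions for potency.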

For the molecule `NCc1cccc2c1CN(C(=O)c1c(O)cc(O)cc1OCc1ccccc1)C2` [Example 83, (4-(Aminomethyl)isoindolin-2-yl)(2-(benzyloxy)-4,6-dihydroxyphenyl)methanone hydrochloride], the values for the 50% inhibitory concentration (IC50) in experiment [1] and in experiment [2] were less than 1000 nM and 1000 to 10000 nM, respectively.

`O=C(c1c(O)cc(O)cc1OCc1ccccc1)N1CCc2ccc(CNC3COC3)cc2C1` [Example 84, (2-(Benzyloxy)-4,6-dihydroxyphenyl)(7-((oxetan-3-ylamino)methyl)-3,4-dihydroisoquinolin-2(1H)-yl)methanone]: the concentration for half-maximal inhibition (IC50) in experiment [1] and in experiment [2] was 1000 to 10000 nM throughout.

For `O=C(c1c(O)cc(O)cc1OCc1ccccc1)N1CCc2ccc(CNC3CCOC3)cc2C1` (stereo not shown) [Example 85, (2-(Benzyloxy)-4,6-dihydroxyphenyl)(7-(((tetrahydrofuran-3-yl)amino)methyl)-3,4-dihydroisoquinolin-2(1H)-yl)methanone], the IC50 in experiment [1] and in experiment [2] was 1000 to 10000 nM throughout.

Consider `CNC(=O)c1ccc2c(c1)CN(C(=O)c1c(O)cc(O)cc1OCc1ccccc1)C2` [Example 86, 2-(2-(Benzyloxy)-4,6-dihydroxybenzoyl)-N-methylisoindoline-5-carboxamide], for which the concentration for half-maximal inhibition (IC50) in experiment [1] and in experiment [2] was less than 1000 nM each time.

On to `CN(C)C(=O)c1ccc2c(c1)CN(C(=O)c1c(O)cc(O)cc1OCc1ccccc1)C2` [Example 87, 2-(2-(Benzyloxy)-4,6-dihydroxybenzoyl)-N,N-dimethylisoindoline-5-carboxamide], for which the IC50 in experiment [1] and in experiment [2] was less than 1000 nM each time.

Regarding `O=C(c1c(O)cc(O)cc1OCc1ccccc1)N1Cc2cccc(OC3CCOC3)c2C1` (stereo not shown) [Example 88, (2-(Benzyloxy)-4,6-dihydroxyphenyl)(4-((tetrahydrofuran-3-yl)oxy)isoindolin-2-yl)methanone], the IC50 in experiment [1] and in experiment [2] was 1000 to 10000 nM throughout.

As for `O=C(c1c(O)cc(O)cc1OCc1ccccc1)N1Cc2cccc(OCc3cncnc3)c2C1` [Example 89, (2-(Benzyloxy)-4,6-dihydroxyphenyl)(4-(pyrimidin-5-ylmethoxy)isoindolin-2-yl)methanone], the IC50 in experiment [1] and in experiment [2] was less than 1000 nM throughout.

In the case of `O=C(c1c(O)cc(O)cc1OCc1ccccc1)N1Cc2cccc(OCC3CNC3)c2C1` [Example 90, (4-(Azetidin-3-ylmethoxy)isoindolin-2-yl)(2-(benzyloxy)-4,6-dihydroxyphenyl) methanone], the IC50 in experiment [1] and in experiment [2] was 1000 to 10000 nM throughout.

With `N#Cc1cccc2c1CN(C(=O)c1c(O)cc(O)cc1OCc1ccccc1)C2` [Example 91, 2-(2-(Benzyloxy)-4,6-dihydroxybenzoyl)isoindoline-4-carbonitrile], the results for the IC50 in experiment [1] and in experiment [2] were 1000 to 10000 nM and less than 1000 nM, respectively.

Take `N#CC1CN(c2cccc3c2CN(C(=O)c2c(O)cc(O)cc2OCc2ccccc2)C3)C1` [Example 92, 1-(2-(2-(Benzyloxy)-4,6-dihydroxybenzoyl)isoindolin-4-yl)azetidine-3-carbonitrile]: the IC50 in experiment [1] and in experiment [2] was 1000 to 10000 nM each time.

In the case of `Nc1cccc2c1CN(C(=O)c1c(O)cc(O)cc1OCc1ccccc1)C2` [Example 93, (4-Aminoisoindolin-2-yl)(2-(benzyloxy)-4,6-dihydroxyphenyl)methanone], the IC50 (commonly the midpoint of a concentration-inhibition curve) was less than 1000 nM in experiment [1] and 1000 to 10000 nM in experiment [2].

Take `CC(=O)Nc1cccc2c1CN(C(=O)c1c(O)cc(O)cc1OCc1ccccc1)C2` [Example 94, N-(2-(2-(benzyloxy)-4,6-dihydroxybenzoyl)isoindolin-4-yl)acetamide]: the IC50 in experiment [1] and in experiment [2] was 1000 to 10000 nM throughout.

With `CC(=O)NCc1cccc2c1CN(C(=O)c1c(O)cc(O)cc1OCc1ccccc1)C2` [Example 95, N-((2-(2-(Benzyloxy)-4,6-dihydroxybenzoyl)isoindolin-4-yl)methyl)acetamide], the IC50 in experiment [1] and in experiment [2] was 1000 to 10000 nM in each case.

As for `O=C(c1c(O)cc(O)cc1OCc1cccnc1)N1Cc2cccc(NC3CCOC3)c2C1` (stereo not shown) [Example 96, (2,4-dihydroxy-6-(pyridin-3-ylmethoxy)phenyl)(4-((tetrahydrofuran-3-yl)amino)isoindolin-2-yl)methanone], the IC50 in experiment [1] is less than 1000 nM; in experiment [2], greater than 10000 nM.

As to `O=C(c1c(O)cc(O)cc1OCc1ccncc1)N1Cc2cccc(NC3CCOC3)c2C1` (stereo not shown) [Example 97, (2,4-Dihydroxy-6-(pyridin-4-ylmethoxy)phenyl)(4-((tetrahydrofuran-3-yl)amino)isoindolin-2-yl)methanone], the IC50 in experiment [1] was less than 1000 nM; in experiment [2], 1000 to 10000 nM.

Turning to `O=C(c1c(O)cc(O)cc1OCC1CCOCC1)N1Cc2cccc(NC3CCOC3)c2C1` (stereo not shown) [Example 98, (2,4-Dihydroxy-6-((tetrahydro-2H-pyran-4-yl)methoxy)phenyl)(4-((tetrahydrofuran-3-yl)amino)isoindolin-2-yl)methanone], the results for the IC50 in experiment [1] and in experiment [2] were 1000 to 10000 nM and greater than 10000 nM, respectively.

For the molecule `O=C(c1c(O)cc(O)cc1OCc1cccnn1)N1Cc2cccc(NC3CCOC3)c2C1` (stereo not shown) [Example 99, (2,4-Dihydroxy-6-(pyridazin-3-ylmethoxy)phenyl)(4-((tetrahydrofuran-3-yl)amino)isoindolin-2-yl)methanone], the figures for the IC50 in experiment [1] and in experiment [2] were 1000 to 10000 nM and greater than 10000 nM, respectively.

Turning to `Nc1cccc2c1CN(C(=O)c1c(O)cc(O)cc1OCc1ccccc1)CC2` [Example 100, 8-Amino-3,4-dihydroisoquinolin-2(1H)-yl(2-(benzyloxy)-4,6-dihydroxyphenyl)methanone], the IC50 in experiment [1] and in experiment [2] was 1000 to 10000 nM each time.

For the molecule `CC(=O)Nc1cccc2c1CN(C(=O)c1c(O)cc(O)cc1OCc1ccccc1)CC2` [Example 101, N-(2-(2-(benzyloxy)-4,6-dihydroxybenzoyl)-1,2,3,4-tetrahydroisoquinolin-8-yl)acetamide], the IC50 in experiment [1] and in experiment [2] was 1000 to 10000 nM in each case.

Consider `O=C(Nc1cccc2c1CN(C(=O)c1c(O)cc(O)cc1OCc1ccccc1)CC2)C1CCOC1` (stereo not shown) [Example 102, N-(2-(2-(Benzyloxy)-4,6-dihydroxybenzoyl)-1,2,3,4-tetrahydroisoquinolin-8-yl) tetrahydrofuran-3-carboxamide], for which the IC50 in experiment [1] and in experiment [2] was greater than 10000 nM each time.

For the molecule `CC(C)(C)OC(=O)NCCCCCN1CCN(Cc2ccc3c(c2)CN(C(=O)c2c(O)cc(O)cc2OCc2ccccc2)C3)CC1` [Example 103, t-Butyl (5-(4-((2-(2-(benzyloxy)-4,6-dihydroxybenzoyl)isoindolin-5-yl)methyl)piperazin-1-yl)pentyl)carbamate], the 50% inhibitory concentration (IC50) in experiment [1] and in experiment [2] was less than 1000 nM each time.

Consider `NCCCCCN1CCN(Cc2ccc3c(c2)CN(C(=O)c2c(O)cc(O)cc2OCc2ccccc2)C3)CC1` [Example 104, (5-((4-(5-Aminopentyl)piperazin-1-yl)methyl)isoindolin-2-yl)(2-(benzyloxy)-4,6 dihydroxyphenyl)methanone hydrochloride], for which the IC50 in experiment [1] and in experiment [2] was less than 1000 nM in each case.

`O=C(c1c(O)cc(O)cc1OCc1ccccc1)N1Cc2cccc(NCC3CCOC3)c2C1` (stereo not shown) [Example 112, (2-(Benzyloxy)-4,6-dihydroxyphenyl)(4-(((tetrahydrofuran-3-yl)methyl)amino)isoindolin-2-yl)methanone]: the IC50 in experiment [1] is less than 1000 nM; in experiment [2] it was 1000 to 10000 nM.

(Values after US20240293392A1, “INHIBITOR COMPOUNDS” (NeoPhore Limited, priority 2021, published 2024).)
